Patent US9386938B2, “Methods for collagen imaging” (Collagen Medical, LLC, priority 2005, dated 2016)
Values joined by “and” are separate entries in the source; they are usually repeats but may differ in a detail not shown here. Equal values may be shown once. Read-outs that look alike come from different tables or passages of the source. Blank lines part the entries; values can stand above or below the molecule they belong to. Bridge positions count the residues as written; N and C are the ends. Ends that are not written are not given here. Glu‑DTPA‑Gd = N-terminal Glu-DTPA-Gd chelate (gadolinium DTPA complex on glutamic acid)

Experiments:
[1] = test system: perfused Langendorff rat heart; test: Washout kinetics from perfused Langendorff rat heart; conditions: perfusion with buffer for 10 minutes
Protocol: (§1) After deep anesthesia with pentobarbital (80 mg/kg ip), the chest cavity of a male Sprague Dawley rat (300 g) was opened, retracted and the heart was removed immediately and placed in an ice-cold normal Krebs-Henseleit (K-H) solution (NaCl, 118 mM; KCl, 4.7 mM; CaCl2, 2.5 mM; MgSO4, 1.2 mM; KH2PO4, 1.2 mM; NaHCO3, 25 mM; glucose, 5.5 mM). A K-H buffer filled 20 Gauge needle was inserted into the apex of the heart penetrating into the bottom of the chamber. This was attached to a pressure transducer used to record and monitor heart function. Perfusion pressure (˜60 mmHg) was monitored using a second transducer. The heart was perfused at a constant flow rate of 10-12 mL/min with 37° C. Krebs-Henseleit buffer saturated with a mixture of 95% O2 and 5% CO2 gas. The heart was paced at 300 beats/min.
A Langendorff rat heart preparation was perfused with K-H buffer at a rate of 10-12 mL/min. A one mL solution containing SEQ ID NO: 144 (300 μM), radiolabeled (I-125) SEQ ID NO: 144 (1-6 μCi), GdDTPA (300 μM), and radiolabeled (Tc-99m) DTPA (5-8 μCi) was infused into the heart at a rate of 1 mL/min. After the infusion was finished, the heart was either removed or perfusion was allowed to continue for an additional 10 minutes and then the heart was removed. The perfusion buffer was not recirculated through the heart. After removal of any connective tissue, the heart was opened, fluid in the chambers drained, and the interior blotted dry with filter paper. The heart was then weighed and the radioactivity in the heart measured with a Packard Cobra 5003 Gamma Scintillation counter. […] An aliquot of the K-H buffer was also weighed and counted. Concentration estimates were decay corrected. Studies were performed at least in duplicate.
A Langendorff rat heart preparation was perfused with K-H buffer at a rate of 10-12 mL/min. […] The heart was then weighed and the radioactivity in the heart measured with a Packard Cobra 5003 Gamma Scintillation counter. […] An aliquot of the K-H buffer was also weighed and counted. […]

[2] = target: T1, rat type I collagen (Rattus norvegicus, UniProt P02454+P02466); test: MR phantom imaging at 4.7 T of rat collagen gel samples; conditions: samples 4 and 8 (centrifuged)
T1 construct: Rat collagen (acid soluble, type I, rat tail); purchased Upstate USA, Inc 08-115; host or cells: rat tail (tissue extract)
T1 sequence (P02454 152-1207 limits assumed): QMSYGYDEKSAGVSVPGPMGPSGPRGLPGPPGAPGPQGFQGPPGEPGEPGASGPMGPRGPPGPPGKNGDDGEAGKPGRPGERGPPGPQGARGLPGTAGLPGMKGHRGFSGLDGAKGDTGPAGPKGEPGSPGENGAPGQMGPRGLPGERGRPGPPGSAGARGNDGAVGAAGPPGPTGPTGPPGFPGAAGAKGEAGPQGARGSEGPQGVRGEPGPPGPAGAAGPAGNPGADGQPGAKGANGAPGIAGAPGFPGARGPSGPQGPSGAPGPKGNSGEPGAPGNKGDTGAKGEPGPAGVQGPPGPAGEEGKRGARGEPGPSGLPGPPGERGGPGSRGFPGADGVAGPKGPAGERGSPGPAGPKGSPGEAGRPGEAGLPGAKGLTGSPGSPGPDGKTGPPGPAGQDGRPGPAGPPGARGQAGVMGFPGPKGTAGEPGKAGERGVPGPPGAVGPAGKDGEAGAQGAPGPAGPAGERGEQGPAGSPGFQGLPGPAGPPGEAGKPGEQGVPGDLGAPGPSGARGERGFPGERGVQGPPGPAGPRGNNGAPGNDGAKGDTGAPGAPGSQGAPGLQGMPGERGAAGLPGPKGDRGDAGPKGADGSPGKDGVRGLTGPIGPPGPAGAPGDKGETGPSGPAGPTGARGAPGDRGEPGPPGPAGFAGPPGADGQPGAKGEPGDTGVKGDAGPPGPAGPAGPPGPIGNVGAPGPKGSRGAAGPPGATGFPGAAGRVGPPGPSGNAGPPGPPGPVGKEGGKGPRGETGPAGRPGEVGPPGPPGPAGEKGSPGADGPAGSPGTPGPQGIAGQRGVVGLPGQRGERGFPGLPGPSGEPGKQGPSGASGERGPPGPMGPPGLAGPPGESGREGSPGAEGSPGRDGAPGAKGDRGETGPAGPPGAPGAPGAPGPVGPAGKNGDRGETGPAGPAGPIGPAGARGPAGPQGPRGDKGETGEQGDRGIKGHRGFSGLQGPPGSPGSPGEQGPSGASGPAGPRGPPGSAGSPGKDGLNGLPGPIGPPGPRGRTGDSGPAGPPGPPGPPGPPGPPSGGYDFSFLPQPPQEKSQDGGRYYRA
T1 sequence (P02466 86-1125 limits assumed): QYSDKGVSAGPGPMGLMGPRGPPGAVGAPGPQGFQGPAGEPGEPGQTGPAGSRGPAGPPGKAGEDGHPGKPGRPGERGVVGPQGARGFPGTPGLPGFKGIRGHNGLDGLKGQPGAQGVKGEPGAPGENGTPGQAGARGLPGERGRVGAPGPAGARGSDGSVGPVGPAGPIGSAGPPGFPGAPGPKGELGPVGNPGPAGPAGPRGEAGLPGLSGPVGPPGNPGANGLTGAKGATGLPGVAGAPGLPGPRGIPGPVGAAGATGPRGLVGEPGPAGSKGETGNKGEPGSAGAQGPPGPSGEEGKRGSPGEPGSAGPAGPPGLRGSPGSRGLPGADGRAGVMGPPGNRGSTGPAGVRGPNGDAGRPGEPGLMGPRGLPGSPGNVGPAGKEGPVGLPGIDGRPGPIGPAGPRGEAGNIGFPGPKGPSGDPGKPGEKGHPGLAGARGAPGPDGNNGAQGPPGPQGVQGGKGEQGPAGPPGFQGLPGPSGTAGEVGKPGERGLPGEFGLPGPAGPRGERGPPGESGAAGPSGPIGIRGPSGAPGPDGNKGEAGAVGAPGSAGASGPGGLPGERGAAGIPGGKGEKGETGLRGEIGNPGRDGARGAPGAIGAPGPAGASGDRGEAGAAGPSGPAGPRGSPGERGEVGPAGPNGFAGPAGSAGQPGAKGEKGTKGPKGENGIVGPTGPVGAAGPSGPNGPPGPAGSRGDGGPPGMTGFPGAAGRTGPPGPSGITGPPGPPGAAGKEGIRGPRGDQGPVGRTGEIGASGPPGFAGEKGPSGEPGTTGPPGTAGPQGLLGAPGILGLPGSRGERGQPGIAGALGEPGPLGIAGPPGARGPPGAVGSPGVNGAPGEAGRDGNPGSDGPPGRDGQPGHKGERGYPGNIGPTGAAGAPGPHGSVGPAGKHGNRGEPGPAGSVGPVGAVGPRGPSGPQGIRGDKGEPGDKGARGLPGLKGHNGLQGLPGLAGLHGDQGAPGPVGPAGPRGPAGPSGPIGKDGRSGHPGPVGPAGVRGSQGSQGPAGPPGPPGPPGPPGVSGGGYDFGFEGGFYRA
Protocol: Samples: • 1. […] Sample prepared as sample 2, but centrifuged to separate insoluble rat collagen gel • 5. Sample prepared as sample 3, but centrifuged to separate insoluble human collagen gel • 6. 27 μM GdDTPA solution in PBS, pH 7.4 • 7. 27 μM GdDTPA in a solution of 5.0 μM rat type I collagen in 10 mM phosphate buffer, pH 5 incubated at 37° C. overnight to form a gel • 8. Sample prepared as in sample 7, but centrifuged to separate insoluble rat collagen gel • 9. Homogeneous gel of 5 μM rat collagen • 10. Homogeneous gel of 7.5 μM human collagen
Samples for imaging were placed in glass tubes that were in turn placed in tubes containing water. Images were acquired at 4.7 T on a Bruker Biospec Imager using a Multi-Slice Multi-Echo Method with variable Relaxation Delay (MSMEVTR) experiment. The spin echo time and the relaxation delay were set to TE=11.2 ms and TR=500 ms, respectively with a flip angle of 30°. Images were acquired of sample 2, sample 4, sample 7, and sample 8. […] Sample 7 and 8 show uniform signal intensity.

[3] = Biodistribution analysis in rats (heart and blood radioactivity); conditions: rat
[4] = test system: myocardium; test: Myocardial MR imaging in mouse; type: in vivo, C57BL/6 mouse; conditions: 25 μmol/kg i.v. bolus, 4.7-T
[5] = test system: infarcted myocardium; test: Myocardial infarction MR imaging in mouse, 7 days post MI; type: in vivo, C57BL/6 mouse; conditions: 25 μmol/kg i.v. bolus
[6] = Heart uptake in mice, gadolinium by ICP-MS; conditions: mouse, mesentery vein injection
[7] = test system: perfused Langendorff rat heart; test: Equilibrium binding to perfused Langendorff rat heart; conditions: 10 minutes
Protocol: as §1
Two peptide test articles, a high collagen binding peptide (SEQ ID NO: 144) and a low collagen binding peptide (SEQ ID NO: 173), are compared to GdDTPA. The appropriate test article was added to the K-H buffer solution to a total concentration of either 3 or 30 μM. Also added to the K-H buffer was a radiotracer analog of each peptide or GdDTPA. For the peptides, the radiotracer was an aliquot of the appropriate 1-125 labeled peptide derivative (see Example 5 for protocol). For GdDTPA, the tracer added was Tc-99m labeled DTPA. The amount of radioactivity added to the buffer solution was 1-5 μCi.
The heart was perfused for a period of 10 minutes and the perfusion solution was recycled through the heart. The total volume of K-H buffer used was 50-60 mL. After 10 min, the heart was removed from the apparatus and any connective tissue was removed. The heart was opened, fluid in the chambers drained, and the interior blotted dry with filter paper. The heart was then weighed and the radioactivity in the heart measured with a Packard Cobra 5003 Gamma Scintillation counter. An aliquot of the K-H buffer was also weighed and counted. Studies were performed at least in duplicate.
The dual peptide gadolinium tetramer (Compound ID 803) was compared to GdDTPA. Compound ID 803 and GdDTPA were added to the K-H buffer solution to a total concentration of 3 μM. Also added to the K-H buffer was a radiotracer analog of Compound ID 803 or GdDTPA. For Compound ID 803, the radiotracer was an aliquot of the In-111 labeled compound. For GdDTPA, the tracer added was Tc-99m labeled DTPA. The amount of radioactivity added to the buffer solution was 1-5 μCi.

[8] = rat, in vivo
[9] = In vivo heart uptake of collagen binding agent and non-binding analog; conditions: mouse, 10 μmol/kg tail vein, 15 minutes post-injection, N=4

Heart:Blood ([3]; 1 min post injection): 0.26 | Heart:Blood ([3]; 5 min post injection): 0.26
Molecule: O=C([O-])CN(CCN(CC(=O)[O-])CC(=O)O)CCN(CC(=O)[O-])CC(=O)O.[Gd+3] [GdDTPA, gadolinium diethylenetriaminepentaacetate, reference compound]
amount remaining in heart at 10 minutes after infusion relative to 0 minutes post infusion [1]: 0.5% and 2.2% | MR signal of centrifuged rat collagen gel pellet versus supernatant [2]: no increased concentration of GdDTPA in the gel relative to the supernatant

Molecule: CC(C)C[C@H](NC(=O)[C@@H]1CSSC[C@H](NC(=O)[C@H](Cc2c[nH]cn2)NC(=O)[C@H](Cc2c[nH]c3ccccc23)NC(=O)[C@H](CCCCNC(=O)CNC(=S)Nc2ccc(C[C@@H](CN(CCN(CC(=O)O)CC(=O)O)CC(=O)O)N(CC(=O)O)CC(=O)O)cc2)NC(=O)CNC(=S)Nc2ccc(C[C@@H](CN(CCN(CC(=O)O)CC(=O)O)CC(=O)O)N(CC(=O)O)CC(=O)O)cc2)C(=O)N[C@@H]([C@@H](C)O)C(=O)N[C@@H]([C@@H](C)O)C(=O)N[C@@H](CCCCNC(=S)Nc2ccc(C[C@@H](CN(CCN(CC(=O)O)CC(=O)O)CC(=O)O)N(CC(=O)O)CC(=O)O)cc2)C(=O)N[C@@H](Cc2ccccc2)C(=O)N2CCC[C@H]2C(=O)N[C@@H](Cc2c[nH]cn2)C(=O)N[C@@H](Cc2c[nH]cn2)C(=O)N[C@@H](Cc2ccc(O)cc2)C(=O)N1)C(=O)N[C@@H](Cc1ccc(O)cc1)C(=O)N[C@@H](Cc1ccc(-c2ccccc2)cc1)C(N)=O [Compound ID 800]
persistence of positive enhancement of the myocardium [4]: at least 1 hour | MR enhancement of infarcted regions [5]: hyperenhancement of infarcted zones | persistence of enhancement [5]: at least 1 hour | retention of gadolinium in the heart [6]: ≥ 30 min

heart uptake relative to GdDTPA [7]: about 10 times
Molecule: Q W T C S G D A Y T W H C N Y E (GQWTCSGDAYTWHCNYE; disulfide 5-14 (inferred); not fully specified (C-terminus)) [SEQ ID NO. 144]
amount remaining in heart at 10 minutes after infusion relative to 0 minutes post infusion [1]: 68% | Heart:Blood [8]: 0.38

Molecule: CC(C)C[C@H](NC(=O)[C@@H]1CSSC[C@@H](NC(=O)[C@H](Cc2c[nH]cn2)NC(=O)[C@H](Cc2c[nH]c3ccccc23)NC(=O)[C@H](CCCCNC(=O)CNC(=S)Nc2ccc(C[C@@H](CN(CCN(CC(=O)O)CC(=O)O)CC(=O)O)N(CC(=O)O)CC(=O)O)cc2)NC(=O)CNC(=S)Nc2ccc(C[C@@H](CN(CCN(CC(=O)O)CC(=O)O)CC(=O)O)N(CC(=O)O)CC(=O)O)cc2)C(=O)N[C@@H]([C@@H](C)O)C(=O)N[C@@H]([C@@H](C)O)C(=O)N[C@@H](CCCCNC(=S)Nc2ccc(C[C@@H](CN(CCN(CC(=O)O)CC(=O)O)CC(=O)O)N(CC(=O)O)CC(=O)O)cc2)C(=O)N[C@@H](Cc2ccccc2)C(=O)N2CCC[C@H]2C(=O)N[C@@H](Cc2c[nH]cn2)C(=O)N[C@@H](Cc2c[nH]cn2)C(=O)N[C@@H](Cc2ccc(O)cc2)C(=O)N1)C(=O)N[C@@H](Cc1ccc(O)cc1)C(=O)N[C@@H](Cc1ccc(-c2ccccc2)cc1)C(N)=O [Compound ID 1019]
Gadolinium concentration in the blood [9]: 13.3±0.3 nmol Gd/g tissue | Gadolinium concentration in the heart [9]: 14.7±1.0 nmol Gd/g tissue

Molecule: Glu-DTPA-Gd-G.Q.W.H.C.T.T.R.F.P.H.H.Y.C.L.Y.G-PEG-H ({Glu‑DTPA‑Gd}-GQWHCTTRFPHHYCLYG; disulfide 5-14 (inferred); not fully specified (C-terminus)) [SEQ ID NO. 186]
MR signal of centrifuged rat collagen gel pellet versus supernatant [2]: the pellet for sample 4 was much brighter than the supernatant
